pIC50: −log10 of the molar value.
What was measured:
[1] = molecular target: T1, KDR kinase (Homo sapiens, UniProt P35968, DEL940-989/E990V); assay: KDR kinase assay K1; type: biochemical; details: for IC50: Method K1; for inhibition at 10 µM: read-out: Results, % @ concentration μM, Method K1
Description: (§1) IC50 values were calculated from a series of percent inhibition values determined at a range of inhibitor concentrations using software routines as implemented in the GraphPad Prism software package.

[2] = molecular target: phosphorylated p-38-alpha kinase (Homo sapiens, UniProt Q16539); assay: P-38 alpha kinase assay P1; type: biochemical; details: Method P1; for IC50: 2 h pre-incubation before ATP; for Results, % @ concentration μM: @ 1.0 μM
[3] = molecular target: T2, Abl kinase (Homo sapiens, UniProt P00519); assay: Abl kinase assay A2; type: biochemical; details: for IC50: Method A2, 2 h pre-incubation, 0.5 mM ATP
T2 sequence (P00519 229-512): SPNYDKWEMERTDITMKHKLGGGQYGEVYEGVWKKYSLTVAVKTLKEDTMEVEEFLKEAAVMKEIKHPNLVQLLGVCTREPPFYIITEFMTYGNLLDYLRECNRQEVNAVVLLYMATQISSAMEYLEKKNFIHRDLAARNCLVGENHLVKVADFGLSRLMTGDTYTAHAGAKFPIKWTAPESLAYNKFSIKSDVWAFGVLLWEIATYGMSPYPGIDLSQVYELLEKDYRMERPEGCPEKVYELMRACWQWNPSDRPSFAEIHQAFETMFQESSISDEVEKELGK
Description: as §1

[4] = molecular target: T3, B-Raf(V599E) kinase (Homo sapiens, UniProt P15056, V600E); assay: B-Raf(V599E) kinase assay B1; type: biochemical; details: Method B1; construct 1
Description: (§2) The test compounds were incubated with the reaction mixture at 30° C. for 2 h. […] The reaction rate was calculated using the 1.5 h to 2.5 h time frame. […] IC50 values were calculated from a series of percent inhibition values determined at a range of inhibitor concentrations using software routines as implemented in the GraphPad Prism software package.
Target sequence in this assay (P15056 with tags, fused parts or gaps V600E): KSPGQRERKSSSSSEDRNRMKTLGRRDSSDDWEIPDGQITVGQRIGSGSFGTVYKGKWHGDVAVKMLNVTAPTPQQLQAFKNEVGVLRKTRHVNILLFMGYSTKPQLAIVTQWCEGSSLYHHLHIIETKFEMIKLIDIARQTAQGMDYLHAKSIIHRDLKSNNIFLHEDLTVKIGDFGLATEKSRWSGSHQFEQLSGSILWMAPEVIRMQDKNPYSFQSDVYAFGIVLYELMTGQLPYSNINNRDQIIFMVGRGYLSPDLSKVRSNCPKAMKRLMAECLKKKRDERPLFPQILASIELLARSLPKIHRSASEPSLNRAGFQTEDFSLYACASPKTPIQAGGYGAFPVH

[5] = molecular target: T4, phospho p-38 alpha kinase (Homo sapiens, UniProt Q16539); assay: P-38 alpha kinase assay (spectrophotometric, pyruvate kinase/lactate dehydrogenase coupled); type: biochemical; details: Table 5; for IC50: assay not named, read-out: uM
T4 construct: purchased Panvera

[6] = molecular target: T2, Abl kinase; assay: Abl kinase assay A1; type: biochemical; details: for IC50: Method A1, read-out: Results, μM (IC50); for inhibition at 10 µM: read-out: Results, % @ concentration μM, Method A1
Description: as §1

[7] = molecular target: T1, KDR kinase; assay: KDR kinase assay K2; details: for inhibition at 1 µM: read-out: Results, % @ concentration μM
[8] = molecular target: T3, B-Raf(V599E) kinase; assay: biochemical; details: read-out: Results, % @ concentration μM
Description: as §2
Target sequence in this assay (P15056 433-726 V600E): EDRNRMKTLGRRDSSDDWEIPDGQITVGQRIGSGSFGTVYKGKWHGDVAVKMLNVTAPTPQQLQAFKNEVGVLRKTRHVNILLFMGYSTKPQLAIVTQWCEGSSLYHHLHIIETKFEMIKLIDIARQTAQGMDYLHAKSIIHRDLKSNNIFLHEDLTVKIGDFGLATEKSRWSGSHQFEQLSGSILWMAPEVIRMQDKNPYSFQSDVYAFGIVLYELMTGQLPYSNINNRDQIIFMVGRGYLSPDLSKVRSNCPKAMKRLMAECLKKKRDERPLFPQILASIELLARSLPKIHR
Same as assay B1 except that (1) construct 2 was employed at a nominal concentration of 2 nM (2) the reaction was pre-incubated at 30° C. for 1 h prior to initiation with ATP (3) a reading time frame of 0.5 h to 1.5 h.

T4 sequence (Q16539 whole entry): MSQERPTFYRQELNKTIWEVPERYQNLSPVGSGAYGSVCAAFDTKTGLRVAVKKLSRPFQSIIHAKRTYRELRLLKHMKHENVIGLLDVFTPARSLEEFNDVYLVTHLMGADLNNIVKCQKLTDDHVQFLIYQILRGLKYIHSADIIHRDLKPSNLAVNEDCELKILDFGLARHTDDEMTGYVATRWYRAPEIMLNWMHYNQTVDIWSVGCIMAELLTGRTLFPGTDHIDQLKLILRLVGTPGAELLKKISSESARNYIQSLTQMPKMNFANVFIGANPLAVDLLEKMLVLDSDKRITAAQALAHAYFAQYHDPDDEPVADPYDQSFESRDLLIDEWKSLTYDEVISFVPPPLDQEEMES
phosphorylated p-38-alpha kinase, sequence (Q16539 1-360 isoform Q16539-2): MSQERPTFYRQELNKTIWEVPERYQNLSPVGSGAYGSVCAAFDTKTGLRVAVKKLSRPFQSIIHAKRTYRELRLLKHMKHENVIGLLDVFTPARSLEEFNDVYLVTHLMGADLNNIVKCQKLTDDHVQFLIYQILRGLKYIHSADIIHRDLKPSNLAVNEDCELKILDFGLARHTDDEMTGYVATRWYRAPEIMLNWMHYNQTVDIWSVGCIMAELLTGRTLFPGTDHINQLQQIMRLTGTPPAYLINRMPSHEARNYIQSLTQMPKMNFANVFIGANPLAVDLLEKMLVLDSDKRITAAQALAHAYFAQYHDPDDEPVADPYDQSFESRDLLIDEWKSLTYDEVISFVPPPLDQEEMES
T1 sequence (P35968 with tags, fused parts or gaps DEL940-989/E990V): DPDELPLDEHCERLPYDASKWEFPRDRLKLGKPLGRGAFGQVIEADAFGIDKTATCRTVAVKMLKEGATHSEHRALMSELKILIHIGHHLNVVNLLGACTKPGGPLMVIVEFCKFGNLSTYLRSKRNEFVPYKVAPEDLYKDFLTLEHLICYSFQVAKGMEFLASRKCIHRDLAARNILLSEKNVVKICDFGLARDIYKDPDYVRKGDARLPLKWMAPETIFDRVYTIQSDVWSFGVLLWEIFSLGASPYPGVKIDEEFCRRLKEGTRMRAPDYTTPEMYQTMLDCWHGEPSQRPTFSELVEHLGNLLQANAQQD

| SMILES | IC50 [2] | IC50 [3] | IC50 [4] | IC50 [5] | other results |
| --- | --- | --- | --- | --- | --- |
| NC(=O)Cc1cccc(-n2nc(C3CCCC3)cc2NC(=O)Nc2cccc(Cl)c2Cl)c1 [Example 446, 1-(1-(3-(2-amino-2-oxoethyl)phenyl)-3-cyclopentyl-1H-pyrazol-5-yl)-3-(2,3-dichlorophenyl)urea] | 0.005 µM | 4.8 µM | 0.016 µM |  | IC50 [1]: 1.5 µM |
| NC(=O)Cc1ccc(-n2nc(C3CCCC3)cc2NC(=O)Nc2cccc(Cl)c2Cl)cc1 [Example 467, 1-(1-(4-(2-amino-2-oxoethyl)phenyl)-3-cyclopentyl-1H-pyrazol-5-yl)-3-(2,3-dichlorophenyl)urea] | 0.011 µM |  | 0.032 µM | 0.119 µM | IC50 [1]: 2.9 µM; IC50 [6]: 4.8 µM |
| NC(=O)Cc1cccc(-c2ccc(C(F)(F)F)cc2NC(=O)Nc2ccc(-c3cccc4c3CNC4=O)cc2)c1 [Example 483, [1,1′-biphenyl]-2′-(3-(4-(1-oxoisoindolin-4-yl)phenyl)ureido)-4′-(trifluoromethyl)-3-acetic acid amide] | 0.027 µM |  | 0.014 µM | 0.27 µM | IC50 [1]: 0.21 µM; IC50 [6]: 11.3 µM |
| O=C(Cc1cccc(-n2nc(C3CCCC3)cc2NC(=O)Nc2cccc(Cl)c2Cl)c1)NCC(O)CO (stereo not drawn) [Example 487, 1-(3-cyclopentyl-1-(3-(2-(2,3-dihydroxypropylamino)-2-oxoethyl)phenyl)-1H-pyrazol-5-yl)-3-(2,3-dichlorophenyl)urea] | 0.006 µM |  |  | 0.038 µM | inhibition at 1 µM [7]: 20% |
| CC(Cc1cccc(-n2nc(-c3ccccc3F)cc2NC(=O)Nc2cccc(Cl)c2Cl)c1)C(N)=O (stereo not drawn) [Example 489, 1-(1-(3-(3-amino-2-methyl-3-oxopropyl)phenyl)-3-(2-fluorophenyl)-1H-pyrazol-5-yl)-3-(2,3-dichlorophenyl)urea] |  |  |  | 0.52 µM | inhibition at 1 µM [7]: 25% |
| CC(C)(C)c1cc(NC(=O)Nc2ccc(F)c(F)c2F)n(-c2cccc(CC(N)=O)c2)n1 [Example 491, 1-(1-(3-(2-amino-2-oxoethyl)phenyl)-3-tert-butyl-1H-pyrazol-5-yl)-3-(2,3,4-trifluorophenyl)urea] | 0.013 µM |  | 0.007 µM |  | inhibition at 10 µM [1]: 77%; inhibition at 10 µM ([3]; read-out: Results, % @ concentration μM): 78% |
| CC(C)(C)c1cc(NC(=O)Nc2ccc(F)c(F)c2F)n(-c2ccc(CC(=O)O)cc2)n1 [Example 492, 2-(4-(3-tert-butyl-5-(3-(2,3,4-trifluorophenyl)ureido)-1H-pyrazol-1-yl)phenyl)acetic acid] | 0.008 µM |  | 0.028 µM | 0.04 µM | inhibition at 10 µM [1]: 50%; inhibition at 10 µM [6]: 49% |
| CC(C)(C)c1cc(NC(=O)Nc2cc(F)c(F)cc2F)n(-c2cccc(CC(N)=O)c2)n1 [Example 494, 1-(1-(3-(2-amino-2-oxoethyl)phenyl)-3-tert-butyl-1H-pyrazol-5-yl)-3-(2,4,5-trifluorophenyl)urea] | 0.068 µM |  | 0.007 µM | 0.67 µM | inhibition at 10 µM [1]: 82%; inhibition at 10 µM [6]: 96% |
| CC(C)(C)c1cc(NC(=O)Nc2ccc(F)cc2F)n(-c2ccc(CC(N)=O)cc2)n1 [Example 498, 1-(1-(4-(2-amino-2-oxoethyl)phenyl)-3-tert-butyl-1H-pyrazol-5-yl)-3-(2,4-difluorophenyl)urea] | 0.041 µM |  | 0.074 µM |  | inhibition at 10 µM [1]: 60%; % @ concentration, uM ([5]; @ 1 uM): 25% @1; inhibition at 10 µM [6]: 48% |
| CC(C)(C)c1cc(NC(=O)Nc2ccc(F)cc2F)n(-c2cccc(C#N)c2)n1 [Example 499, 1-(3-tert-butyl-1-(3-cyanophenyl)-1H-pyrazol-5-yl)-3-(2,4-difluorophenyl)urea] | 0.046 µM |  | 0.026 µM |  | IC50 [1]: 0.4 µM; % @ concentration, uM ([5]; @ 0.1 uM): 78%; % @ concentration, uM ([5]; @ 1 uM): 95%; inhibition at 10 µM [6]: 88% |
| CC(C)(C)c1cc(NC(=O)Nc2cccc(Oc3cccnc3)c2)n(-c2cccc(CC(N)=O)c2)n1 [Example 500, 1-(1-(3-(2-amino-2-oxoethyl)phenyl)-3-tert-butyl-1H-pyrazol-5-yl)-3-(3-(pyridin-3-yloxy)phenyl)urea] | 0.017 µM | 0.021 µM | 0.01 µM |  | pIC50 [7]: 8.05 |
| NC(=O)Cc1cccc(-n2nc(-c3cccs3)cc2NC(=O)Nc2cccc(Oc3cccnc3)c2)c1 [Example 502, 1-(1-(3-(2-amino-2-oxoethyl)phenyl)-3-(thiophen-2-yl)-1H-pyrazol-5-yl)-3-(3-(pyridin-3-yloxy)phenyl)urea] |  |  |  |  | IC50 [6]: 3.1 µM; pIC50 [7]: 5.89 |
| NC(=O)Cc1cccc(-n2nc(C(F)(F)F)cc2NC(=O)Nc2cccc(Oc3cccnc3)c2)c1 [Example 503, 1-(1-(3-(2-amino-2-oxoethyl)phenyl)-3-(trifluoromethyl)-1H-pyrazol-5-yl)-3-(3-(pyridin-3-yloxy)phenyl)urea] |  | 0.29 µM | 0.13 µM |  | pIC50 [7]: 6.72 |
| CNC(=O)c1cc(Oc2ccc(NC(=O)Nc3cc(C(C)(C)C)nn3-c3cccc(CC(N)=O)c3)cc2)ccn1 [Example 506, 1-(1-(3-(2-amino-2-oxoethyl)phenyl)-3-tert-butyl-1H-pyrazol-5-yl)-3-(4-(2-(methylcarbamoyl)pyridin-4-yloxy)phenyl)urea] | 0.009 µM | 0.0066 µM | 0.02 µM | 0.042 µM | IC50 [1]: 0.021 µM |
| CC(C)(C)c1cc(NC(=O)Nc2ccc(-c3cccc4c3CNC4=O)cc2)n(-c2cccc(CC(N)=O)c2)n1 [Example 510, 1-(1-(3-(2-amino-2-oxoethyl)phenyl)-3-tert-butyl-1H-pyrazol-5-yl)-3-(4-(1-oxoisoindolin-4-yl)phenyl)urea] | 0.12 µM | 0.062 µM | 0.21 µM | 0.47 µM | IC50 [1]: 0.007 µM |
| C=C1NS(=O)(=O)N(Cc2cccc(-n3nc(C(C)(C)C)cc3NC(=O)Nc3cccc(Cl)c3Cl)c2)C1=O [Example 511, 1-{5-t-butyl-2-[3-(4-methylene-1,1,3-trioxo-[1,2,5]thiadiazolidin-2-ylmethyl)-phenyl]-2H-pyrazol-3-yl}-3-(2,3-dichlorophenyl)-urea] |  | 0.25 µM | 1.7 µM | 0.024 µM | pIC50 [7]: 7.85 |
| NC(=O)Cc1cccc(-n2nc(C3CCCC3)cc2NC(=O)Nc2ccc(-c3cccc4c3CNC4=O)cc2)c1 [Example 512, 1-(1-(3-(2-amino-2-oxoethyl)phenyl)-3-cyclopentyl-1H-pyrazol-5-yl)-3-(4-(1-oxoisoindolin-4-yl)phenyl)urea] |  | 0.11 µM |  | 0.032 µM | pIC50 [7]: 7.54; Results, % @ concentration μM [2]: 82% @1.0 |
| Cn1c(=O)c(-c2cccc(NC(=O)Nc3cc(C(C)(C)C)nn3-c3cccc(CC(N)=O)c3)c2)cc2cncnc21 [Example 513, 1-(1-(3-(2-amino-2-oxoethyl)phenyl)-3-tert-butyl-1H-pyrazol-5-yl)-3-(3-(8-methyl-7-oxo-7,8-dihydropyrido[2,3-d]pyrimidin-6-yl)phenyl)urea] | 0.012 µM | 0.023 µM | 0.008 µM | 0.41 µM |  |
| Cn1c(=O)c(-c2cccc(NC(=O)Nc3cc(C4CCCC4)nn3-c3cccc(CC(N)=O)c3)c2)cc2cncnc21 [Example 514, 1-(1-(3-(2-amino-2-oxoethyl)phenyl)-3-cyclopentyl-1H-pyrazol-5-yl)-3-(3-(8-methyl-7-oxo-7,8-dihydropyrido[2,3-d]pyrimidin-6-yl)phenyl)urea] | 0.011 µM | 0.077 µM |  | 0.57 µM | pIC50 [7]: 7.48 |
| Cc1ccc(NC(=O)Nc2cc(C(C)(C)C)nn2-c2cccc(CC(N)=O)c2)cc1Nc1ncccn1 [Example 515, 1-(1-(3-(2-amino-2-oxoethyl)phenyl)-3-tert-butyl-1H-pyrazol-5-yl)-3-(4-methyl-3-(pyrimidin-2-ylamino)phenyl)urea] |  |  |  |  | inhibition at 1 µM [8]: 27%; Results, % @ concentration μM [2]: 90% @1.0 |
| Cc1ccc(NC(=O)Nc2cc(C(C)(C)C)nn2-c2cccc(CC(N)=O)c2)cc1Nc1nccc(-c2cccnc2)n1 [Example 516, 1-(1-(3-(2-amino-2-oxoethyl)phenyl)-3-tert-butyl-1H-pyrazol-5-yl)-3-(4-methyl-3-(4-(pyridin-3-yl)pyrimidin-2-ylamino)phenyl)urea] |  | 0.0018 µM | 0.022 µM | 0.45 µM |  |
